Assay results as given in US6914045B2, “Glycopeptide antibiotics” (Wyeth Holdings Corporation, priority 2001, dated 2005).
In brackets after ≈: the same amount, converted by molar mass. Read-outs that look alike come from different tables or passages of the source.

Experiments:
Experiment in all cases: in vitro antibacterial evaluation, MIC by broth dilution
Type in all cases: cell-based
[1] = test system: Enterococcus sp.
Method: (§1) Methods for in vitro Antibacterial Evaluation (Table 1)
(§2) The minimum inhibitory concentration (MIC), the lowest concentration of the antibiotic which inhibits growth of the test organism, is determined by the broth dilution method using Muller-Hinton II […] (Baltimore Biological Laboratories) following the recommendations of the National Committee for Clinical Laboratory Standards [Methods for dilution antimicrobial susceptibility tests for bacteria that grow aerobically, approved standard M7-A2, National Committee for Clinical Laboratory Standards, Villanova, Pa.].
(§3) An inoculum level of 5×10^5 CFU/mL, and a range of antibiotic concentrations (64-0.06 μg/mL) is used. […] The test organisms include a spectrum of Gram-positive bacteria comprised of Staphylococcus sp., Streptococcus sp. and Enterococcus sp. These organisms include recent clinical isolates that are resistant to methicillin, penicillin and/or vancomycin.

[2] = test system: Staphylococcus sp.; conditions: for MIC Staphylococcus aureus (GC 4535): strain GC 4535; for MIC Staphylococcus aureus-SMITH (GC 4536): strain GC 4536
Method: as §1, §2, §3

[3] = test system: Streptococcus sp.
Method: as §1, §2, §3

[4] = test system: Escherichia coli
Method: as §2, §3

[5] = Enterococcus faecalis (ATCC 29212), broth dilution, 18 hours at 35° C.
[6] = Enterococcus faecalis (GC 4552), broth dilution, 18 hours at 35° C.
[7] = broth dilution, 18 hours at 35° C.
[8] = broth dilution, 18 hours at 35° C., strain GC 2242
[9] = strain ATCC 29213, broth dilution, 18 hours at 35° C.
[10] = strain GC 1131, broth dilution, 18 hours at 35° C.
[11] = strain GC 4537, broth dilution, 18 hours at 35° C.
[12] = strain GC 4538, broth dilution, 18 hours at 35° C.
[13] = strain GC 4547, broth dilution, 18 hours at 35° C.
[14] = Enterococcus faecalis (GC 2242), broth dilution, 18 hours at 35° C.
[15] = broth dilution, 18 hours at 35° C., strain GC 4537
[16] = broth dilution, 18 hours at 35° C., strain GC 4538
[17] = broth dilution, 18 hours at 35° C., strain GC 4547

## CC(c1ccccc1)C1NC(=O)CNC(=O)C(CO)NC(=O)C(C(O)C2CNC(=N)N2C2OC(CO)C(O)C(O)C2O)NC(=O)C(C(O)C2CNC(=N)N2)NC(=O)C(Cc2ccc(OC3OC(CO)C(OC4OC(CO)C(O)C(O)C4O)C(O)C3O)c(I)c2)NC1=O (stereo not drawn) [Example 6, Cyclo[glycyl-β-methylphenylalanyl-O-(4-O-hexolpyranosylhexolpyranosyl)-3-iodo-tyrosyl-3-(2-iminoimidazolidin-4-yl)seryl-3-(3-hexolpyranosyl-2-iminoimidazolidin-4-yl)serylseryl]]
[1]
  MIC Enterococcus avium (GC 4558): >128 µg/mL
  MIC Enterococcus faecalis (ATCC 29212): >128 µg/mL
  MIC Enterococcus faecalis (GC 2242): >128 µg/mL
  MIC Enterococcus faecalis (GC 4552): >128 µg/mL
  MIC Enterococcus faecalis (GC 4553): >128 µg/mL
  MIC Enterococcus faecalis (GC 4554): >128 µg/mL
  MIC Enterococcus faecium (GC 2243): >128 µg/mL
  MIC Enterococcus faecium (GC 4556): >128 µg/mL
  MIC Enterococcus faecium (GC 4557): >128 µg/mL
[2]
  MIC Coagulase Negative Staphylococcus (GC 4547): >128 µg/mL
  MIC Coagulase Negative Staphylococcus (GC 4548): >128 µg/mL
  MIC Coagulase Negative Staphylococcus (GC 4549): >128 µg/mL
  MIC Coagulase Negative Staphylococcus (GC 4551): >128 µg/mL
  MIC Coagulase Negative Staphylococcus (ID-3941): >128 µg/mL
  MIC Staphylococcus aureus (ATCC 29213): >128 µg/mL
  MIC Staphylococcus aureus (GC 1131): >128 µg/mL
  MIC Staphylococcus aureus (GC 4541): >128 µg/mL
  MIC Staphylococcus aureus (GC 4542): >128 µg/mL
  MIC Staphylococcus aureus (GC 4544): >128 µg/mL
  MIC Staphylococcus aureus (GC 4545): >128 µg/mL
  MIC Staphylococcus aureus-SMITH (GC 4543): >128 µg/mL
  MIC Staphylococcus haemolyticus (GC 4546): >128 µg/mL
[3]
  MIC Streptococcus agalactiae (GC 4564): >128 µg/mL
  MIC Streptococcus pneumoniae (GC 4565): >128 µg/mL
  MIC Streptococcus pyogenes (ID-3187): >128 µg/mL
[4]
  MIC Escherichia coli (ATCC 25922): >128 µg/mL
  MIC Escherichia coli (GC 4559): >128 µg/mL
  MIC Escherichia coli (GC 4560): >128 µg/mL

## CCCCCC(=O)OCC1OC(Oc2ccc(CC3NC(=O)C(C(C)c4ccccc4)NC(=O)CNC(=O)C(CO)NC(=O)C(C(O)C4CNC(=N)N4C4OC(CO)C(O)C(O)C4O)NC(=O)C(C(O)C4CNC(=N)N4)NC3=O)cc2)C(O)C(O)C1OC1OC(CO)C(O)C(O)C1O (stereo not drawn) [Example 95a, Cyclo[glycyl-β-methylphenylalanyl-O-(6-O-hexanoyl-4-O-hexopranosylhexopyranosyl)-tyrosyl-3-(2-iminoimidazolidin-4-yl)sery-3-(3-hexopyranosyl-2-iminoimidazolidin-4-yl)-serylseryl]]
[1]; [5]
  MIC Enterococcus faecalis (ATCC 29212): 32 µg/mL (≈ 23 µM)
[1]; [6]
  MIC Enterococcus faecalis (GC 4552): 32 µg/mL (≈ 23 µM)
[1]; [7]
  MIC Enterococcus faecalis (ATCC 29212): 32 µg/mL (≈ 23 µM)
  MIC Enterococcus faecalis (GC 2242): 16 µg/mL (≈ 11.5 µM)
  MIC Enterococcus faecalis (GC 4552): 32 µg/mL (≈ 23 µM)
[1]; [8]
  MIC Enterococcus faecalis (GC 2242): 16 µg/mL (≈ 11.5 µM)
[2]; [7]
  MIC Coagulase Negative Staphylococcus (GC 4537): 8 µg/mL (≈ 5.74 µM)
  MIC Coagulase Negative Staphylococcus (GC 4538): 4 µg/mL (≈ 2.87 µM)
  MIC Coagulase Negative Staphylococcus (GC 4547): 4 µg/mL (≈ 2.87 µM)
  MIC Staphylococcus aureus (GC 4535): 8 µg/mL (≈ 5.74 µM)
  MIC Staphylococcus aureus-SMITH (GC 4536): 4 µg/mL (≈ 2.87 µM)
[2]; [9]
  MIC Staphylococcus aureus (ATCC 29213): 4 µg/mL (≈ 2.87 µM)
[2]; [10]
  MIC Staphylococcus aureus (GC 1131): 4 µg/mL (≈ 2.87 µM)
[2]; [11]
  MIC Coagulase Negative Staphylococcus (GC 4537): 8 µg/mL (≈ 5.74 µM)
[2]; [12]
  MIC Coagulase Negative Staphylococcus (GC 4538): 4 µg/mL (≈ 2.87 µM)
[2]; [13]
  MIC Coagulase Negative Staphylococcus (GC 4547): 4 µg/mL (≈ 2.87 µM)
[4]; 18 hours at 35° C.
  MIC Escherichia coli (GC 4559): >64 µg/mL
  MIC Escherichia coli (GC 4560): 2 µg/mL (≈ 1.44 µM)

## CC(c1ccccc1)C1NC(=O)CNC(=O)C(CO)NC(=O)C(C(O)C2CNC(=N)N2C2OC(CO)C(O)C(O)C2O)NC(=O)C(C(O)C2CNC(=N)N2)NC(=O)C(Cc2ccc(OC3OC(COC(=O)Cc4ccccc4)C(OC4OC(CO)C(O)C(O)C4O)C(O)C3O)cc2)NC1=O (stereo not shown) [Example 98b]
[1]; [5]
  MIC Enterococcus faecalis (ATCC 29212): 64 µg/mL (≈ 45.3 µM)
[1]; [14]
  MIC Enterococcus faecalis (GC 2242): 64 µg/mL (≈ 45.3 µM)
[1]; [6]
  MIC Enterococcus faecalis (GC 4552): 128 µg/mL (≈ 90.6 µM)
[1]; [7]
  MIC Enterococcus faecalis (ATCC 29212): 64 µg/mL (≈ 45.3 µM)
  MIC Enterococcus faecalis (GC 2242): 64 µg/mL (≈ 45.3 µM)
  MIC Enterococcus faecalis (GC 4552): 128 µg/mL (≈ 90.6 µM)
[2]; [7]
  MIC Coagulase Negative Staphylococcus (GC 4537): 16 µg/mL (≈ 11.3 µM)
  MIC Coagulase Negative Staphylococcus (GC 4538): 8 µg/mL (≈ 5.66 µM)
  MIC Coagulase Negative Staphylococcus (GC 4547): 8 µg/mL (≈ 5.66 µM)
  MIC Staphylococcus aureus (GC 4535): 16 µg/mL (≈ 11.3 µM)
  MIC Staphylococcus aureus-SMITH (GC 4536): 8 µg/mL (≈ 5.66 µM)
[2]; [15]
  MIC Coagulase Negative Staphylococcus (GC 4537): 16 µg/mL (≈ 11.3 µM)
[2]; [16]
  MIC Coagulase Negative Staphylococcus (GC 4538): 8 µg/mL (≈ 5.66 µM)
[2]; [17]
  MIC Coagulase Negative Staphylococcus (GC 4547): 8 µg/mL (≈ 5.66 µM)
[2]; [9]
  MIC Staphylococcus aureus (ATCC 29213): 16 µg/mL (≈ 11.3 µM)
[2]; [10]
  MIC Staphylococcus aureus (GC 1131): 16 µg/mL (≈ 11.3 µM)
[4]; 18 hours at 35° C.
  MIC Escherichia coli (GC 4559): >128 µg/mL
  MIC Escherichia coli (GC 4560): 2 µg/mL (≈ 1.42 µM)

## CCCCCCC(=O)OCC1OC(Oc2ccc(CC3NC(=O)C(C(C)c4ccccc4)NC(=O)CNC(=O)C(CO)NC(=O)C(C(O)C4CNC(=N)N4C4OC(CO)C(O)C(O)C4O)NC(=O)C(C(O)C4CNC(=N)N4)NC3=O)cc2)C(O)C(O)C1OC1OC(CO)C(O)C(O)C1O (stereo not drawn) [Example 97a, Cyclo[glycyl-β-methylphenylalanyl-O-(6-O-heptanoyl-4-O-hexopyranosylhexopyranosyl)-tyrosyl-3-(2-iniinoimidazolidin-4-yl)seryl-3-(3-hexopyranosyl-2-iminoimidazolidin-4-yl)-serylseryl]]
[1]; [5]
  MIC Enterococcus faecalis (ATCC 29212): 8 µg/mL (≈ 5.68 µM)
[1]; [14]
  MIC Enterococcus faecalis (GC 2242): 4 µg/mL (≈ 2.84 µM)
[1]; [6]
  MIC Enterococcus faecalis (GC 4552): 16 µg/mL (≈ 11.4 µM)
[1]; [7]
  MIC Enterococcus faecalis (ATCC 29212): 8 µg/mL (≈ 5.68 µM)
  MIC Enterococcus faecalis (GC 2242): 4 µg/mL (≈ 2.84 µM)
  MIC Enterococcus faecalis (GC 4552): 16 µg/mL (≈ 11.4 µM)
[2]; [7]
  MIC Coagulase Negative Staphylococcus (GC 4537): 4 µg/mL (≈ 2.84 µM)
  MIC Coagulase Negative Staphylococcus (GC 4538): 2 µg/mL (≈ 1.42 µM)
  MIC Coagulase Negative Staphylococcus (GC 4547): 2 µg/mL (≈ 1.42 µM)
  MIC Staphylococcus aureus (GC 4535): 2 µg/mL (≈ 1.42 µM)
  MIC Staphylococcus aureus-SMITH (GC 4536): 0.5 µg/mL (≈ 0.355 µM)
[2]; [15]
  MIC Coagulase Negative Staphylococcus (GC 4537): 4 µg/mL (≈ 2.84 µM)
[2]; [16]
  MIC Coagulase Negative Staphylococcus (GC 4538): 2 µg/mL (≈ 1.42 µM)
[2]; [17]
  MIC Coagulase Negative Staphylococcus (GC 4547): 2 µg/mL (≈ 1.42 µM)
[2]; [9]
  MIC Staphylococcus aureus (ATCC 29213): 1 µg/mL (≈ 0.711 µM)
[2]; [10]
  MIC Staphylococcus aureus (GC 1131): 2 µg/mL (≈ 1.42 µM)
[4]; 18 hours at 35° C.
  MIC Escherichia coli (GC 4559): >64 µg/mL
  MIC Escherichia coli (GC 4560): 1 µg/mL (≈ 0.711 µM)

## CCCCCC(=O)OCC1OC(N2C(=N)NCC2C(O)C2NC(=O)C(C(O)C3CNC(=N)N3)NC(=O)C(Cc3ccc(OC4OC(CO)C(OC5OC(CO)C(O)C(O)C5O)C(O)C4O)cc3)NC(=O)C(C(C)c3ccccc3)NC(=O)CNC(=O)C(CO)NC2=O)C(O)C(O)C1O (stereo not drawn) [Example 95, Cyclo[glycyl-β-methylphenylalanyl-O-(4-O-hexojpyranosylhexopyranosyl)tyrosyl-3-(2-iminoimidazolidin-4-yl)seryl-3-[3-(6-O-hexanoylhexopyranosyl)-2-iminoimidazolidin-4-yl]serylseryl]]
[1]; [5]
  MIC Enterococcus faecalis (ATCC 29212): >64 µg/mL
[1]; [6]
  MIC Enterococcus faecalis (GC 4552): >64 µg/mL
[1]; [7]
  MIC Enterococcus faecalis (ATCC 29212): >64 µg/mL
  MIC Enterococcus faecalis (GC 2242): >64 µg/mL
  MIC Enterococcus faecalis (GC 4552): >64 µg/mL
[1]; [8]
  MIC Enterococcus faecalis (GC 2242): >64 µg/mL
[2]; [7]
  MIC Coagulase Negative Staphylococcus (GC 4537): >64 µg/mL
  MIC Coagulase Negative Staphylococcus (GC 4538): >64 µg/mL
  MIC Coagulase Negative Staphylococcus (GC 4547): >64 µg/mL
  MIC Staphylococcus aureus (GC 4535): >64 µg/mL
  MIC Staphylococcus aureus-SMITH (GC 4536): >64 µg/mL
[2]; [9]
  MIC Staphylococcus aureus (ATCC 29213): >64 µg/mL
[2]; [10]
  MIC Staphylococcus aureus (GC 1131): >64 µg/mL
[2]; [11]
  MIC Coagulase Negative Staphylococcus (GC 4537): >64 µg/mL
[2]; [12]
  MIC Coagulase Negative Staphylococcus (GC 4538): >64 µg/mL
[2]; [13]
  MIC Coagulase Negative Staphylococcus (GC 4547): >64 µg/mL
[4]; 18 hours at 35° C.
  MIC Escherichia coli (GC 4559): >64 µg/mL
  MIC Escherichia coli (GC 4560): 8 µg/mL (≈ 5.74 µM)
